Laboratory results taken from US12385839B2, “Use of protein in predicting drug properties” (priority 2021, dated 2025).
Where two headings read alike, the source gives them in different places.

Tests used:
[1] = target: T1, human serum albumin (HSA) (Homo sapiens, UniProt P02768); experiment: Circular dichroism spectrum, secondary structure (α-helix content) of HSA; details: HSA 2×10^−6 M
In short: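 CD spectra of HSA held at 2×10^−6 M with pesticide at (0-20)×10^−6 M, 1 mm path, after 2–5 min preheating. α-Helix content derived from mean residue ellipticity at 208 nm (585 residues).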

[2] = cited from earlier work; for LD50: modelling table; for Toxicity: toxicity grade by LD50, trailing figure = number of pesticides in group
[3] = target: T1, human serum albumin (HSA); experiment: Fluorescence emission spectrum (quenching) of HSA with carbamate pesticides; type: binding; details: for Ksv (37°) / ΔG(37°) / Binding distance/r / Number of binding sites/n: modelling table; for Kq / Ksv / n (number of binding sites) / Kd: pH 7.4; for R (binding distance): Förster energy transfer; for fluorescence of HSA quenched by pesticide: titration of pesticide; for ΔH^0 / ΔS^0: Van't Hoff, 296-310 K
In short: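 Fluorescence quenching of HSA by carbamate pesticides was measured. HSA was held at 5×10^−7 M and pesticide was titrated from (0-105)×10^−7 M. Samples were preheated for 3 minutes, excited at 280 nm with 15 nm slits, and emission was recorded from 300-500 nm. Inner-filter effects were corrected. Binding site number n came from log[(F0−F)/F]=log Ka+nlog[Q].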

T1 sequence (P02768 25-609): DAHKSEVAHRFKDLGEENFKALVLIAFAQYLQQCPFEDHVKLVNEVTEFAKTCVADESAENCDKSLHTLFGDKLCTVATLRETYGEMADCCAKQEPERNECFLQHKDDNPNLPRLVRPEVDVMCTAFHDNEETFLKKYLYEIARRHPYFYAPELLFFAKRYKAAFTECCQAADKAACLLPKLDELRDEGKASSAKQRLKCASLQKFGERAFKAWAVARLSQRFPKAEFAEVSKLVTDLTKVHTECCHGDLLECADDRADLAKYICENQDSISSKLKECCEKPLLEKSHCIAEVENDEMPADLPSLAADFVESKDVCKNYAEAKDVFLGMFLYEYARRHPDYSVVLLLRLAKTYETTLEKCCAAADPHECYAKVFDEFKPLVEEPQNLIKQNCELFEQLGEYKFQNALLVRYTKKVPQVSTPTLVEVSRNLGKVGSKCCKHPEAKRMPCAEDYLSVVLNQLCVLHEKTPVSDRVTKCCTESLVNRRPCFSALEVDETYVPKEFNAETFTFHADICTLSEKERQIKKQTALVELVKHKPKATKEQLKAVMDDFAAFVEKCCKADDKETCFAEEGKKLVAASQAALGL

Compound	α-helix contents ([1]; 5:1 (Pesticide:HSA))	α-helix contents ([1]; 10:1 (Pesticide:HSA))	LD50 [2]	Toxicity [2]	Ksv (37°) [3]	ΔG(37°) [3]	ΔG^0 ([3]; 296 K)	Kq ([3]; 296 K)	Ksv ([3]; 296 K)	n (number of binding sites) ([3]; 296 K)	ΔG^0 ([3]; 303 K)	Kq ([3]; 303 K)	Ksv ([3]; 303 K)	n (number of binding sites) ([3]; 303 K)	ΔG^0 ([3]; 310 K)	R (binding distance) ([3]; 310 K)	Kq ([3]; 310 K)	Ksv ([3]; 310 K)	n (number of binding sites) ([3]; 310 K)	fluorescence of HSA quenched by pesticide ([3]; 310 K)	other results
CNC(=O)O/N=C(\SC)C(=O)N(C)C [Oxamyl, oxamyl]	50.883%	49.354%	2.5 mg/kg	Highly	66054.55780	−22.83	-4.8592 kcal/mol	5.229 ± 0.185 10^12 M^−1s^−1	5.229 ± 0.185 10^4 M^−1	0.774 ± 0.016	-5.158 kcal/mol	5.735 ± 0.073 10^12 M^−1s^−1	5.735 ± 0.073 10^4 M^−1	0.789 ± 0.004	-5.4567 kcal/mol	2.564 nm	6.605 ± 0.058 10^12 M^−1s^−1	6.605 ± 0.058 10^4 M^−1	0.807 ± 0.003	quenched	Kd ([3]; 296 K, read-out: Ka (binding constant)): 255 µM; Kd ([3]; 303 K, read-out: Ka (binding constant)): 195 µM; Kd ([3]; 310 K, read-out: Ka (binding constant)): 141 µM; ΔH^0 [3]: 7.7713 kcal/mol; ΔS^0 [3]: 178.534 J · mol^−1 · K^−1; Binding distance/r [3]: 2.564; Number of binding sites/n [3]: 0.8074
CNC(=O)Oc1ccccc1OC(C)C [Propoxur, propoxur]	50.121%	49.341%	41 mg/kg	Highly	50525.98687	−20.63	-4.1912 kcal/mol	3.425 ± 0.132 10^12 M^−1s^−1	3.425 ± 0.132 10^4 M^−1	0.706 ± 0.014	-4.5607 kcal/mol	4.353 ± 0.121 10^12 M^−1s^−1	4.353 ± 0.121 10^4 M^−1	0.729 ± 0.013	-4.93 kcal/mol	3.138 nm	5.053 ± 0.120 10^12 M^−1s^−1	5.053 ± 0.120 10^4 M^−1	0.757 ± 0.011	quenched	Kd ([3]; Ka (binding constant), 296 K): 794 µM; Kd ([3]; Ka (binding constant), 303 K): 527 µM; Kd ([3]; Ka (binding constant), 310 K): 330 µM; ΔH^0 [3]: 11.43 kcal/mol; ΔS^0 [3]: 220.816 J · mol^−1 · K^−1; Binding distance/r [3]: 3.138; Number of binding sites/n [3]: 0.7565
